# According to publication PMC13072876 (International Journal of Molecular Sciences, 2026):
# Assay: Water solubility, experimental
# Assay type: physicochemical
# Excerpt: Table 5 Water solubility of tested compounds experimental [mg/mL] and predicted by the SwissADME web tool. | column: Water Solubility / [mg/mL]
smiles,measurement,setting,value
COc1cccc2c1C(=O)c1c(O)c3c(c(O)c1C2=O)C[C@@](O)(C(=O)CO)C[C@@H]3O[C@H]1C[C@H](N)[C@H](O)[C@H](C)O1 [doxorubicin],solubility,water,50 mg/mL
"COc1cc2c(c(OC)c1OC)-c1ccc(OC)c(=O)cc1[C@@H](NC(C)=O)CC2 [compound 1, colchicine]",Water solubility experimental,experimental,45 mg/mL
